As a reminder, the IC50 is the concentration needed to halve the response being measured.

Structures are written as SMILES.

This test addresses T1, human chemokine receptor 2 isoform B (Homo sapiens, UniProt P41597).
T1 construct: host or cells: CHOK1-CCR2B-A5 (CHO-K1) cells
T1 sequence (P41597 1-360 isoform P41597-2): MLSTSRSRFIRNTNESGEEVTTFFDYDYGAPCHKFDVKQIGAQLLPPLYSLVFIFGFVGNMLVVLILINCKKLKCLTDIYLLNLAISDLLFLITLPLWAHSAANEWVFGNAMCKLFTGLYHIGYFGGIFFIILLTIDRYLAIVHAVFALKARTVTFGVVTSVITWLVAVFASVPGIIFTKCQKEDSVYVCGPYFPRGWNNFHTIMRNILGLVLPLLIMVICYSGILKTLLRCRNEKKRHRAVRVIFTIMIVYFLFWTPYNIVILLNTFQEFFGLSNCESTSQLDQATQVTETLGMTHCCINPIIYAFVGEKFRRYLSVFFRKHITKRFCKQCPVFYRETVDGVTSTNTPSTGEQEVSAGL
As to the kind of experiment: Calcium mobilization assay. Conditions: Ca mobilisation assay for CCR2; CHOK1-CCR2B-A5 cells; antagonist activity against 20 nM MCP-1. Format: cell-based. The procedure: Calcium Mobilization Assay
CHOK1-CCR2B-A5 cells (from Euroscreen) stably overexpressing the human chemokine receptor 2 isoform B were cultured in Nutrient Hams F12 medium supplemented with 5% FBS, 100 U/ml penicillin, 100 μg/ml streptomycin, 400 μg/ml G418 and 5 μg/ml puromycin. For the assay cells were grown overnight in 384-well black clear flat bottom polystyrene plates (Costar) at 37° C. at 5% CO2. After washing with DMEM, 20 mM Hepes, 2.5 mM probenecid, 0.1% BSA (DMEM assay buffer) cells were loaded with 4 μM Fluo-4 in the same DMEM assay buffer for 2 hours at 30° C. Excess dye was removed and cells were washed with DMEM assay buffer. 384-well compound plates were prepared with DMEM assay buffer/0.5% DMSO with or without various concentrations of test compounds. Usually compounds were tested for agonist and antagonist activity.
Test compounds were added to the assay plate and agonist activity was monitored as fluorescence for 80 seconds with a FLIPR (488 nm excitation; 510-570 nm emission; Molecular Devices). After 20-30 min. of incubation at 30° C., 20 nM MCP-1 (R&D; Roche) was added and fluorescence was monitored again for 80 seconds. Increases in intracellular calcium are reported as maximum fluorescence after agonist exposure minus basal fluorescence before exposure. Antagonist activity is indicated as inhibitor concentration required for 50% inhibition of specific calcium increases.
A general note: Calcium assays in cells follow changes in intracellular calcium, usually with a dye or a luminescent sensor.
On to `O=C(/C=C/c1ccc(Cl)c(Cl)c1)N1CCN(CCCN2CCC(O)CC2)C(=O)C1` [Example 11, 4-[(E)-3-(3,4-Dichloro-phenyl)-acryloyl]-1-[3-(4-hydroxy-piperidin-1-yl)-propyl]-piperazin-2-one], for which the half-inhibitory concentration (IC50) came out at 284 nM.

`O=C(/C=C/c1ccc(Cl)c(Cl)c1)N1CCN(CCCN2CCC(CO)C2)C(=O)C1` (centres unmarked) [Example 14, 4-[(E)-3-(3,4-Dichloro-phenyl)-acryloyl]-1-[3-(3-hydroxymethyl-pyrrolidin-1-yl)-propyl]-piperazin-2-one]: the IC50 came out at 307 nM.

For `CC1C(=O)N(CCCN2CCCC2)CCN1C(=O)/C=C/c1ccc(Cl)c(Cl)c1` (centres unmarked) [Example 15, 4-[(E)-3-(3,4-Dichloro-phenyl)-acryloyl]-3-methyl-1-(3-pyrrolidin-1-yl-propyl)-piperazin-2-one], the IC50 amounted to 76.5 nM.

For the molecule `O=C(/C=C/c1ccc(Cl)c(Cl)c1)N1CCN(CCCN2CCCCC2)S(=O)(=O)C1` [Example 34, (E)-3-(3,4-Dichloro-phenyl)-1-[1,1-dioxo-2-(3-piperidin-1-yl-propyl)-[1,2,5]thiadiazinan-5-yl]-propenone], the IC50 came to 202 nM.

Turning to `CC1C(=O)N(CCCN2CCC3(CC3)[C@H](O)C2)CCN1C(=O)/C=C/c1ccc(Cl)c(F)c1` (stereo partly drawn) [Example 39, 4-[(E)-3-(4-Chloro-3-fluoro-phenyl)-acryloyl]-1-[3-((S)-4-hydroxy-6-aza-spiro[2,5]oct-6-yl)-propyl]-3-methyl-piperazin-2-one], the IC50 stood at 13.7 nM.

Values taken from patent US8063042B2, “Heterocyclic compounds” (Hoffmann-La Roche Inc., priority 2007, dated 2011).
